This passage reports Ki results from patent US12384772B2, “Inhibitors” (VIVORYON THERAPEUTICS N.V., priority 2017, dated 2025).

The experiment deals with Glutaminyl cyclase (QC) (Homo sapiens (Human), UniProt Q16769). Briefly: Glutaminyl cyclase assay, determination of IC50 values and calculation of Ki values (H-Gln-AMC substrate, pGAP auxiliary enzyme; pH 8.0 or pH 6.0). It is filed as biochemical. As for the experimental part: 10 mM compound stock solutions were prepared in DMSO. For IC50 determination compound stocks were serially diluted (1:3) in DMSO.
Sequence of Glutaminyl cyclase (QC) (Q16769 29-361): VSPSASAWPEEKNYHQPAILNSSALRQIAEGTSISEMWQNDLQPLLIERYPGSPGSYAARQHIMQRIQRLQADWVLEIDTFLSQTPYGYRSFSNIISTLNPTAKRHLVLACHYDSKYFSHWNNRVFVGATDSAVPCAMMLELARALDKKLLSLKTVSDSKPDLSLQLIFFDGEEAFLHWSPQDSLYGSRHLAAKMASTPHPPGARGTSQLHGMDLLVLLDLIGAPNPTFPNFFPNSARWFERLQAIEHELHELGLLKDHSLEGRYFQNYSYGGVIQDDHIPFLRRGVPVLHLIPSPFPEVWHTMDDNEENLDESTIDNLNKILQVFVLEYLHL
All measurements were performed with an EnSpire Perkin Elmer multimode reader using glutaminyl-7-amino-4-methylcoumarin (H-Gin-AMC) as substrate and recombinant pyroglutamyl aminopeptidase (pGAP) as auxiliary enzyme. Reactions were carried out at ambient temperature in black 96-well half area microplates. Each sample consisted of 1 μl test compound solution or solvent (DMSO) and 49 μl QC appropriately diluted in assay buffer (50 mM Tris/HCl, pH 8.0 or 50 mM MES buffer, pH=6.0). After a 10 min preincubation at ambient temperature the enzyme reaction was started by adding 50 μl of Gln-AMC-substrate/pGAP mixture in assay buffer. Final substrate concentrations were 50 and 200 μM for measurement at pH 8.0 or 6.0, respectively. Release of flourogenic AMC were recorded at excitation/emission wavelengths of 380/460 nm. Initial velocity of the enzyme reaction was calculated by linear regression of the first 10 data points using the Enspire Manager software. Final evaluation and calculation of IC50s were performed using GraphPad Prism software.
Ki-values were calculated according to the following formula: Ki=IC50/(1+[S]/Km), where: […]

[1] abbreviates: pH 6, read-out: hQC Ki [μM] pH6.
The mark [2] stands for this setting: pH 8, read-out: hQC Ki [μM] pH8.

Where two headings read alike, the source gives them in different places.

`COc1ccc(-c2ccccc2Nc2ccc(-c3nnc(N)s3)cc2)cc1` [C4, 5-(4-{[2-(4-methoxyphenyl)phenyl]amino}phenyl)-1,3,4-thiadiazol-2-amine]: the Ki – broadly, the dissociation constant of the complex between target and ligand, obtained from inhibition or displacement – was 1.87 µM under setting [1] and 1.48 µM under setting [2].

With `COc1ccc(-c2cccnc2Nc2ccc(-c3nnc(N)s3)cc2)cc1` [C5, N-[4-(5-amino-1,3,4-thiadiazol-2-yl)phenyl]-3-(4-methoxyphenyl)pyridin-2-amine], the Ki reads like this: under setting [1], 4.17 µM; under setting [2], 4.7 µM. The corresponding values for `COc1ccc(-c2cnccc2Nc2ccc(-c3nnc(N)s3)cc2)cc1` [C6, N-[4-(5-amino-1,3,4-thiadiazol-2-yl)phenyl]-3-(4-methoxyphenyl)pyridin-4-amine] are 7.16 µM and 4.22 µM. The corresponding values for `COc1ccc(-c2cnccc2Nc2ccc(-c3nnc(N)s3)cc2)cc1OC` [C7, N-[4-(5-amino-1,3,4-thiadiazol-2-yl)phenyl]-3-(3,4-dimethoxyphenyl)pyridin-4-amine] are 54.7 µM and 7.46 µM.

For `Nc1nnc(-c2ccc(Nc3nccnc3-c3ccc(F)cc3)cc2)s1` [C9, N-[4-(5-amino-1,3,4-thiadiazol-2-yl)phenyl]-3-(4-fluorophenyl)pyrazin-2-amine], the Ki reads like this: under setting [1], 1.66 µM; under setting [2], 6.89 µM. Taken in the same sequence, the figures for `Nc1nnc(-c2ccc(Nc3ccccc3-c3ccc(Oc4ccccc4)cc3)cc2)s1` [C10, 5-(4-{[2-(4-phenoxyphenyl)phenyl]amino}phenyl)-1,3,4-thiadiazol-2-amine] were 4.37 µM and 2.23 µM. The corresponding values for `CCCOc1ccc(-c2ccccc2Nc2ccc(-c3nnc(N)s3)cc2)cc1` [C11, 5-(4-([2-(4-propoxyphenyl)phenyl]amino)phenyl)-1,3,4-thiadiazol-2-amine] are 2.15 µM and 2.36 µM. The corresponding values for `CC(C)Oc1ccc(-c2ccccc2Nc2ccc(-c3nnc(N)s3)cc2)cc1` [C12, 5-[4-({2-[4-{propan-2-yloxy)phenyl]phenyl}amino)phenyl]-1,3,4-thiadiazol-2-amine] are 1.51 µM and 3.27 µM. In the case of `Nc1nnc(CCCNc2ccccc2-c2ccc(F)cc2)s1` [Comp 93, 5-[3-({4′-fluoro-[1,1′-biphenyl]-2-yl}amino)propyl]-1,3,4-thiadiazol-2-amine], the Ki under setting [1] is 2.6 µM and the Ki under setting [2] was 1100 µM. The corresponding values for `Nc1nnc(SCCNc2ccccc2-c2ccc(F)cc2)s1` [Comp 94, 5-{[2-({4′-fluoro-[1,1′-biphenyl]-2-yl}amino)ethyl]sulfanyl}-1,3,4-thiadiazol-2-amine] are 2.97 µM and 11.5 µM. Consider `COc1ccc(-c2ccccc2NCCSc2nnc(N)s2)cc1OC` [Comp 178, 5-{[2-({3′,4′-dimethoxy-[1,1′-biphenyl]-2-yl}amino)ethyl]sulfanyl}-1,3,4-thiadiazol-2-amine], for which the Ki under setting [1] is 1.1 µM and the Ki under setting [2] was 0.97 µM. The corresponding values for `Cn1cnnc1CCCNc1ccccc1-c1ccc(F)cc1` [Comp 328, 4′-fluoro-N-[3-(4-methyl-4H-1,2,4-triazol-3-yl)propyl]-[1,1′-biphenyl]-2-amine] are 1.97 µM and 2.86 µM. Taken in the same sequence, the figures for `COc1ccc(-c2ccccc2NCCCc2nncn2C)cc1OC` [Comp 384, 3′,4′-dimethoxy-N-[3-(4-methyl-4H-1,2,4-triazol-3-yl)propyl]-[1,1′-biphenyl]-2-amine] were 0.13 µM and 0.26 µM. Taken in the same sequence, the figures for `Nc1nnc(-c2ccc(Nc3ncccc3-c3ccc(F)cc3)cc2)s1` [Comp 521, N-[4-(5-amino-1,3,4-thiadiazol-2-yl)phenyl]-3-(4-fluorophenyl)pyridin-2-amine] were 2.69 µM and 4.27 µM. With `COc1ccc(-c2ccccc2Nc2ccc(-c3nnc(N)s3)cc2)cc1OC` [Comp 561, 5-(4-{[2-(3,4-dimethoxyphenyl)phenyl]amino}phenyl)-1,3,4-thiadiazol-2-amine], the inhibitory constant (Ki) reads like this: under setting [1], 0.42 µM; under setting [2], 1.09 µM. Taken in the same sequence, the figures for `Cn1cnnc1-c1ccc(Nc2ccccc2-c2ccc(F)cc2)cc1` [Comp 826, 4′-fluoro-N-[4-(4-methyl-4H-1,2,4-triazol-3-yl)phenyl]-[1,1‘-biphenyl]-2-amine] were 1.44 µM and 1.74 µM.

For the compound `Cn1cnnc1-c1ccc(Nc2cccnc2-c2ccc(F)cc2)cc1` [Comp 852, 2-(4-fluorophenyl)-N-[4-(4-methyl-4H-1,2,4-triazol-3-yl)phenyl]pyridin-3-amine], the Ki is 2.69 µM under setting [1] and 5.05 µM under setting [2]. The corresponding values for `COc1ccc(-c2ccccc2Nc2ccc(-c3nncn3C)cc2)cc1OC` [Comp 854, 3′,4′-dimethoxy-N-[4-(4-methyl-4H-1,2,4-triazol-3-yl)phenyl]-[1,1′-biphenyl]-2-amine] are 0.44 µM and 1.48 µM. The corresponding values for `Nc1nnc(C2CCN(c3ccccc3-c3ccc(F)cc3)CC2)s1` [Comp 1075, 5-(1-{4′-fluoro-[1,1′-biphenyl]-2-yl}piperidin-4-yl)-1,3,4-thiadiazol-2-amine] are 0.09 µM and 0.248 µM. The corresponding values for `Fc1ccc(-c2ccccc2NCc2ccc3[nH]cnc3c2)cc1` [Comp 1226, N-[(1H-1,3-benzodiazol-5-yl)methyl]-4′-fluoro-[1,1′-biphenyl]-2-amine] are 5.91 µM and 5.29 µM. As to `Fc1ccc(-c2cccnc2NCc2ccc3[nH]cnc3c2)cc1` [Comp 1234, N-(1H-1,3-benzodiazol-5-ylmethyl)-3-(4-fluorophenyl)pyridin-2-amine], the Ki under setting [1] was 58.8 µM and the inhibition constant (Ki) under setting [2] was 12.3 µM. The corresponding values for `Fc1ccc(-c2ncccc2NCc2ccc3[nH]cnc3c2)cc1` [Comp 1252, N-(1H-1,3-benzodiazol-5-ylmethyl)-2-(4-fluorophenyl)pyridin-3-amine] are 145 µM and 22 µM. Taken in the same sequence, the figures for `COc1ccc(-c2ccccc2NCc2ccc3[nH]cnc3c2)cc1OC` [Comp 1254, N-[(1H-1,3-benzodiazol-5-yl)methyl]-3′,4′-dimethoxy-[1,1′-biphenyl]-2-amine] were 0.12 µM and 0.27 µM. Taken in the same sequence, the figures for `COc1ccc(-c2cccnc2NCc2ccc3[nH]cnc3c2)cc1OC` [Comp 1262, N-(1H-1,3-benzodiazol-5-ylmethyl)-3-(3,4-dimethoxyphenyl)pyridin-2-amine] were 0.1 µM and 0.23 µM. As to `COc1ccc(NS(=O)(=O)NCCSc2nncn2C)cc1OC` [Comp 1332, [(3,4-dimethoxyphenyl)sulfamoyl]({2-[(4-methyl-4H-1,2,4-triazol-3-yl)sulfanyl]ethyl})amine], the Ki is, setting by setting: under setting [1], 13.6 µM; under setting [2], 11.8 µM. The corresponding values for `COc1ccc(-c2ccccc2Nc2ccc(-c3nncn3C)cc2)cc1` [D3, N-[2-(4-methoxyphenyl)phenyl]-4-(4-methyl-4H-1,2,4-triazol-3-yl)aniline] are 0.99 µM and 1.69 µM. Taken in the same sequence, the figures for `COc1ccc(-c2ncccc2Nc2ccc(-c3nncn3C)cc2)cc1` [D4, 2-(4-methoxyphenyl)-N-[4(4-methyl-4H-1,2,4-triazol-3-yl)phenyl]pyridin-3-amine] were 1.7 µM and 3.37 µM.

Take `Cn1cnnc1-c1ccc(Nc2ccccc2-c2ccc(Oc3ccccc3)cc2)cc1` [D6, 4-(4-methyl-4H-1,2,4-triazol-3-yl)-N-[2-(4-phenoxyphenyl)phenyl]aniline]: the Ki by setting is: under setting [1], 1.33 µM; under setting [2], 1.81 µM. `COc1ccc(-c2cnccc2Nc2ccc(-c3nncn3C)cc2)cc1OC` [D7, 3-(3,4-dimethoxyphenyl)-N-[4-(4-methyl-4H-1,2,4-triazol-3-yl)phenyl]pyridin-4-amine]: the inhibitory constant (Ki) under setting [2] is 10.1 µM. Regarding `Nc1nnc(CCCNS(=O)(=O)c2ccc(F)cc2)s1` [E2, N-[3-(5-amino-1,3,4-thiadiazol-2-yl)propyl]-4-fluorobenzene-1-sulfonamide], the Ki was 18.1 µM under setting [1] and 9.38 µM under setting [2].

On to `Nc1nnc(SCCNS(=O)(=O)c2ccc(F)cc2)s1` [E3, N-{2-[(5-amino-1,3,4-thiadiazol-2-yl)sulfanyl]ethyl}-4-fluorobenzene-1-sulfonamide], for which the Ki is, setting by setting: under setting [1], 19.9 µM; under setting [2], 26.5 µM. Taken in the same sequence, the figures for `CS(=O)(=NCCCc1nnc(N)s1)c1ccc(F)cc1` (stereo not drawn) [F2, 5-(3-{[(4-fluorophenyl)(methyl)oxo-λ^6-sulfanylidene]amino}propyl)-1,3,4-thiadiazol-2-amine] were 11.4 µM and 11.7 µM. The corresponding values for `Cn1cnnc1SCCNS(=O)(=O)c1ccc(F)cc1` [G2, 4-fluoro-N-{2-[(4-methyl-4H-1,2,4-triazol-3-yl)sulfanyl]ethyl}benzene-1-sulfonamide] are 8.84 µM and 11.5 µM.

Turning to `Nc1ncc(-c2ccc(NS(=O)(=O)c3ccc(F)cc3)cc2)s1` [I1, N-[4-(2-amino-1,3-thiazol-5-yl)phenyl]-4-fluorobenzene-1-sulfonamide], the Ki is, setting by setting: under setting [1], 2.93 µM; under setting [2], 2.64 µM. `Nc1ncc(C2CCN(S(=O)(=O)c3ccc(F)cc3)CC2)s1` [M1, 5-[1-(4-fluorobenzenesulfonyl)piperidin-4-yl]-1,3-thiazol-2-amine]: the Ki reads like this: under setting [1], 1.32 µM; under setting [2], 1.7 µM.
